Assay in all cases: NCI tumour cell line growth inhibition, 48 h
Experiment [1] relates to A498.
For experiment [2], the system named is A549.
Experiment [3] has as its system HCC 2998.
Experiment [4] has as its system HCT-15.
The test system of experiment [5] is HT-29.
Experiment [6] deals with IGROV-1.
Experiment [7] relates to LOX IMVI.
Experiment [8] deals with MDA-MB-435.
Experiment [9] has as its system Malme-3M.
For experiment [10], the system named is NCI-H23.
Experiment [11] concerns NCI-H460.
Experiment [12] concerns NCI/ADR-RES.
The subject of experiment [13] is OVCAR-5.
For experiment [14], the system named is RPMI-8226.
For experiment [15], the system named is SF-295.
The subject of experiment [16] is UACC-257.
For experiment [17], the system named is UO-31.
Experiment [18] concerns SK-MEL-2.
Experiment [19] deals with MDA-MB-231.

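Compound exposure: 48 hours, 5 concentrations, 96-well plates. At the GI50, growth is halved.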 Active and inactive are the calls of the source. No stated cut-off is given here; in the data, active = GI50 up to about 1.1 µM and inactive = higher. A value given as a limit tells only on which side of the number the result lay.

For `Cc1c(Cl)c(S(N)(=O)=O)cc(S(N)(=O)=O)c1NC(=O)c1ccc(Cl)cc1`, the GI50 in experiment [1] is > 100 µM (inactive); in experiment [2], > 100 µM (inactive); in experiment [3], > 100 µM (inactive); in experiment [4], more than 100 µM; in experiment [5] it was > 100 µM (inactive); in experiment [6], > 100 µM (inactive). Besides, the GI50 in [7], in experiment [8], in [9], in [10], in experiment [11] and in experiment [12] was > 100 µM (inactive) throughout. Moreover, the GI50 in [13], in experiment [14], in experiment [15], in [16] and in experiment [17] was > 100 µM (inactive) throughout.

Consider `C1CSCCSCCCSCCSCCCSCCSCCCSCCSC1`, for which the GI50 in experiment [1] is > 100 µM (inactive); in experiment [2], > 100 µM (inactive); in [3], > 100 µM (inactive); in [4], more than 100 µM; in [5], > 100 µM (inactive); in [6], > 100 µM (inactive). Moreover, the GI50 in experiment [7], in experiment [8], in [9], in [10], in experiment [11] and in experiment [12] was > 100 µM (inactive) throughout. In addition, the GI50 in experiment [13] is > 100 µM (inactive); in [14] it was 86.1 µM (inactive); in experiment [15], > 100 µM (inactive); in [18], > 100 µM (inactive); in [16], > 100 µM (inactive); in experiment [17], > 100 µM (inactive).

`C=CCCC(C)N(C(=O)OC(C)(C)C)S(=O)(=O)c1ccc(C)cc1` (stereo not drawn): the GI50 in [2] was > 100 µM (inactive); in [3], > 100 µM (inactive); in experiment [4], more than 100 µM; in experiment [5], > 100 µM (inactive); in [6], > 100 µM (inactive); in experiment [7], > 100 µM (inactive). For the same compound, the GI50 in [9], in experiment [10], in experiment [11], in experiment [13], in [14] and in experiment [15] was > 100 µM (inactive) each time. The GI50 in experiment [18], in [16] and in [17] was > 100 µM (inactive) throughout.

Turning to `CC1CC/C(=C\c2ccc(F)cc2)C2=C1C(c1ccc(F)cc1)n1c(s/c(=C\c3ccc(Cl)cc3)c1=O)=N2` (stereo not drawn), the GI50 in [1] is > 100 µM (inactive); in experiment [2], > 100 µM (inactive); in [4] it was more than 100 µM; in [5], > 100 µM (inactive); in experiment [6] it was > 100 µM (inactive); in [7], > 100 µM (inactive). The GI50 in experiment [19], in experiment [8], in experiment [13], in experiment [14], in experiment [18] and in [16] was > 100 µM (inactive) throughout.

Take `CC1=C(C(=O)NC2CCCCC2)CC(C(=O)NC2CCCCC2)=C(C)N1`: the GI50 was 65.9 µM (inactive) in [1]; > 100 µM (inactive) in experiment [2]; > 100 µM (inactive) in experiment [3]; more than 100 µM in experiment [4]; > 100 µM (inactive) in experiment [6]; > 100 µM (inactive) in experiment [7]. Besides, the GI50 in experiment [19], in experiment [8], in experiment [9], in experiment [10], in experiment [11] and in experiment [13] was > 100 µM (inactive) in each case. The GI50 in experiment [14], in experiment [15], in [18], in experiment [16] and in [17] was > 100 µM (inactive) in each case.

In the case of `O=C1C(=O)C2(CC1S(=O)(=O)c1ccccc1)c1ccccc1-c1ccccc12` (stereo not drawn), the GI50 in [1] was 19.1 µM (inactive); in experiment [2], 24.7 µM (inactive); in [3], 14.7 µM (inactive); in experiment [4] it was 16.7 µM; in experiment [5], 27 µM (inactive); in experiment [6], 23.1 µM (inactive). The GI50 in experiment [7] is 18.5 µM (inactive); in [9], > 10 µM (inactive); in [10], 15.5 µM (inactive); in experiment [11], 18.6 µM (inactive); in experiment [13] it was 23 µM (inactive); in experiment [14], 26.4 µM (inactive). The GI50 in [15] was 21.3 µM (inactive); in experiment [18], 18.1 µM (inactive); in experiment [16] it was 17.8 µM (inactive); in [17], 19.7 µM (inactive).

Take `Cc1ccc2c(c1C)C(=O)/C(=C/c1ccccc1C(=O)O)C2`: the GI50 is > 100 µM (inactive) in experiment [1]; > 100 µM (inactive) in [2]; > 100 µM (inactive) in [3]; more than 100 µM in [4]; > 100 µM (inactive) in experiment [5]; > 100 µM (inactive) in [6]. In addition, the GI50 in experiment [7], in experiment [8], in experiment [9], in [10], in experiment [11] and in experiment [12] was > 100 µM (inactive) throughout. The GI50 is > 100 µM (inactive) in experiment [13]; 45.3 µM (inactive) in experiment [14]; > 100 µM (inactive) in [15]; > 100 µM (inactive) in experiment [18]; > 100 µM (inactive) in [16]; > 100 µM (inactive) in experiment [17].

Consider `CCN1CCCc2cc3c(C(F)(F)F)cc(=O)oc3cc21`, for which the GI50 in [1] was 45.9 µM (inactive); in experiment [2], > 100 µM (inactive); in experiment [3], > 100 µM (inactive); in experiment [4], more than 100 µM; in experiment [5] it was 48.8 µM (inactive); in experiment [6] it was > 100 µM (inactive). For the same compound, the GI50 was 82.2 µM (inactive) in experiment [7]; 53.2 µM (inactive) in [19]; 73.1 µM (inactive) in experiment [8]; 57.4 µM (inactive) in experiment [10]; 82.8 µM (inactive) in experiment [11]; > 100 µM (inactive) in experiment [13]. The GI50 in [15] is 63.4 µM (inactive); in experiment [18], > 100 µM (inactive); in [16], 42.1 µM (inactive); in [17], > 100 µM (inactive).

Regarding `CC#CCCCC1(C)CCNC1=S` (stereo not drawn), the GI50 in [2] was > 10 µM (inactive); in [3], > 10 µM (inactive); in experiment [4], more than 10 µM; in experiment [5] it was > 10 µM (inactive); in experiment [7] it was > 10 µM (inactive); in experiment [8], > 10 µM (inactive). The GI50 in [9], in [10], in experiment [11], in experiment [13], in experiment [15] and in experiment [18] was > 10 µM (inactive) each time. Moreover, the GI50 in experiment [16] and in experiment [17] was > 10 µM (inactive) in each case.

These data come from ChEMBL document CHEMBL1201862, “PubChem BioAssay data set” (2004).
